According to publication PMC8498988, “Scaffold Hybridization Strategy Leads to the Discovery of Dopamine D3 Receptor-Selective or Multitarget Bitopic Ligands Potentially Useful for Central Nervous System Disorders” (ACS Chemical Neuroscience, 2021):
Counter-ions that a name gives are not always drawn. Marks after values point to notes of the source that are not given here. Values belong to the compound of their own block, whether it stands above or below them.

What was measured:
D2R = D2R (Homo sapiens, UniProt P14416); assay: Radioligand competition binding at human D2R ([3H]N-methylspiperone, HEK293 membranes); set-up: expressed in transfected cells; host or cells: HEK293; conditions: for Ki: HEK 293 cells expressing hD2R, read-out: Ki ± SEM, D2R; for inhibition percentage of the radioligand binding, D2R / inhibition at 10 µM: test compound concentration of 10 μM; for inhibition percentage of the radioligand binding, D2R: 10 µM; for inhibition at 10 µM: read-out: inhibition percentage of the radioligand binding, D2R
Protocol: (§1) The novel hybrid derivatives 3–11 were tested at hD2R, hD3R, or hD4R stably expressed in HEK293 cells by competition binding assays, using [^3H]N-methylspiperone as the radioligand, to evaluate their D2-like affinity and subtype selectivity, following the previously reported procedures.[41],[45],[46]
(§2) Binding at dopamine D2-like receptors was determined using previously described methods.[41],[45],[46] Membranes were prepared from HEK293 cells stably expressing human D2, D3, or D4, grown in a 50:50 mix of Dulbecco’s minimal essential medium (DMEM) and Ham’s F12 culture media, supplemented with 20 mM HEPES, 2 mM L-glutamine, 0.1 mM nonessential amino acids, 1× antibiotic/antimycotic, 10% heat-inactivated fetal bovine serum, and 200 μg/mL hygromycin (Life Technologies, Grand Island, NY) and kept in an incubator at 37 °C and 5% CO2. Upon reaching 80–90% confluency, the cells were harvested using premixed Earle’s Balanced Salt Solution (EBSS) with 5 μM EDTA (Life Technologies) and centrifuged at 3000 rpm for 10 min at 21 °C. The supernatant was removed, and the pellet was resuspended in 10 mL hypotonic lysis buffer (5 mM MgCl2, 5 mM Tris, pH 7.4 at 4 °C) and centrifuged at 20,000 rpm for 30 min at 4 °C. The pellet was then resuspended in fresh EBSS buffer made from 8.7 g/L Earle’s Balanced Salts without phenol red (US Biological, Salem, MA), 2.2 g/L sodium bicarbonate, pH to 7.4. A Bradford protein assay (Bio-Rad, Hercules, CA) was used to determine the protein concentration, and membranes were diluted to 500 μg/mL and stored at −80 °C for later use. Radioligand competition binding experiments were conducted using thawed membranes. Test compounds were freshly dissolved in 30% DMSO and 70% H2O to a stock concentration of 100 μM. To assist the solubilization of free-base compounds, 10 μL of glacial acetic acid was added along with DMSO. Each test compound was then diluted into 13 half-log serial dilutions using 30% DMSO vehicle; the final test concentrations ranged from 10 μM to 10 pM. The previously frozen membranes were diluted in fresh EBSS to a 100 μg/mL (for D2 or D3) or 200 μg/mL (D4) stock for binding. Radioligand competition experiments were conducted in glass tubes containing 300 μL of fresh EBSS buffer, 50 μL of diluted test compound, 100 μL of membranes (10 μg of total protein for D2 or D3 and 20 μg of total protein for D4), and 50 μL of [^3H]N-methylspiperone (0.4 nM final concentration; PerkinElmer). Nonspecific binding was determined using 10 μM butaclamol (Sigma-Aldrich, St. Louis, MO), and total binding was determined with the 30% DMSO vehicle. All compound dilutions were tested in triplicate and the reaction was incubated for 1 h at room temperature. The reaction was terminated by filtration through Whatman GF/B filters, presoaked for 1 h in 0.5% polyethylenimine, using a Brandel R48 filtering manifold (Brandel Instruments, Gaithersburg, MD). The filters were washed three times with 3 mL of ice-cold EBSS buffer and transferred to scintillation vials. CytoScint liquid scintillation cocktail (3 mL, MP Biomedicals, Solon, OH) was added, and vials were counted using a PerkinElmer Tri-Carb 2910 TR liquid scintillation counter (Waltham, MA).

D3R = D3R (Homo sapiens, UniProt P35462); assay: Radioligand competition binding at human D3R ([3H]N-methylspiperone, HEK293 membranes); set-up: expressed in transfected cells; host or cells: HEK293; conditions: for Ki: HEK 293 cells expressing hD3R, read-out: Ki ± SEM, D3R; for D2/D3: ratio of Ki values D2R/D3R; for D4/D3: ratio of Ki values D4R/D3R
Protocol: as §1, §2

D4R = biological target: T1, D4R (Homo sapiens, UniProt P21917); assay: Radioligand competition binding at human D4R ([3H]N-methylspiperone, HEK293 membranes); set-up: expressed in transfected cells; host or cells: HEK293; conditions: for Ki: HEK 293 cells expressing hD4R, read-out: Ki ± SEM, D4R; for inhibition at 10 µM / inhibition percentage of the radioligand binding, D4R: test compound concentration of 10 μM; for inhibition at 10 µM: read-out: inhibition percentage of the radioligand binding, D4R; for inhibition percentage of the radioligand binding, D4R: 10 µM
T1 sequence (P21917 1-419): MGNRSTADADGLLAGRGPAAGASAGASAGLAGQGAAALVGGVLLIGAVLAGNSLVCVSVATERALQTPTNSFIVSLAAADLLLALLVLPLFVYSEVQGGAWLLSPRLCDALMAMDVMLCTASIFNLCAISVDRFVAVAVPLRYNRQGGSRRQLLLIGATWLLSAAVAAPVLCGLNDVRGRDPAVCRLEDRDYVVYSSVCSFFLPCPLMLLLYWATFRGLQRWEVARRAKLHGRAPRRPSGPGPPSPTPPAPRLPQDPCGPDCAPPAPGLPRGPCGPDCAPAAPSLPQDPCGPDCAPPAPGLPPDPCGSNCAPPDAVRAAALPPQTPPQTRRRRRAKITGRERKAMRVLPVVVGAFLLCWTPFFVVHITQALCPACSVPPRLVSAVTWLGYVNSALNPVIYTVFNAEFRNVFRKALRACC
Protocol: as §1, §2

Sequence of D3R (P35462 whole entry): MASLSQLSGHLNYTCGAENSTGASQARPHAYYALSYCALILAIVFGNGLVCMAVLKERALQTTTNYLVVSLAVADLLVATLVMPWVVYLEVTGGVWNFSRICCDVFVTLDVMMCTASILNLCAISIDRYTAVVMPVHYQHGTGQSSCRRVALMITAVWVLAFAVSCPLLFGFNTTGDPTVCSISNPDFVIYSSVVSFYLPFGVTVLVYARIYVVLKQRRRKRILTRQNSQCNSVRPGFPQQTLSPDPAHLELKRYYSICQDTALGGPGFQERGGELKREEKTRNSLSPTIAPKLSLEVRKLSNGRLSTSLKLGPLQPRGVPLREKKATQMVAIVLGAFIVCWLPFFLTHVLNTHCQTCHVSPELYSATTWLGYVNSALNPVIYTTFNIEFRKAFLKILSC
Sequence of D2R (P14416 whole entry): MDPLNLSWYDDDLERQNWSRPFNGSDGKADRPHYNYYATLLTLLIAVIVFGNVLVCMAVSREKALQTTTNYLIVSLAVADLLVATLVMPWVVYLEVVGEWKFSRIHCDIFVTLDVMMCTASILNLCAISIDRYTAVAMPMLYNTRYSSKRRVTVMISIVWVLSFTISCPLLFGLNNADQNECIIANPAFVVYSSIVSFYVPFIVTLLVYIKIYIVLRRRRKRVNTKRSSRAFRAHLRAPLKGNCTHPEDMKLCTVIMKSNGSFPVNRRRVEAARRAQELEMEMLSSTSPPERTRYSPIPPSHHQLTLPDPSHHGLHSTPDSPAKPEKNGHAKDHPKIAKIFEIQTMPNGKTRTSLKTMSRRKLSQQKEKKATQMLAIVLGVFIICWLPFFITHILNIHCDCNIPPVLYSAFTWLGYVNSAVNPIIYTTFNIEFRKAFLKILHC

melting point: 200 to 201 °C
Compound: O=C(NCCC(F)CN1CCN(c2cccc(Cl)c2Cl)CC1)C1COc2ccccc2O1 (stereo not drawn) (as salt: oxalate) [11a, N-(4-(4-(2,3-Dichlorophenyl)piperazin-1-yl)-3-fluorobutyl)-2,3-dihydrobenzo[b][1,4]dioxine-2-carboxamide]

inhibition percentage of the radioligand binding, D2R (D2R): 41% ^c
Ki (D3R; [3H]N-methylspiperone): 77.1 ± 25.5 nM
inhibition percentage of the radioligand binding, D4R (D4R): 54.4% ^c
Compound: O=C(NCCC(O)CN1CCN(c2cccc(Cl)c2Cl)CC1)C1COCC(c2ccccc2)(c2ccccc2)O1 (stereo not drawn) [4b, N-(4-(4-(2,3-Dichlorophenyl)piperazin-1-yl)-3-hydroxybutyl)-6,6-diphenyl-1,4-dioxane-2-carboxamide]

inhibition percentage of the radioligand binding, D2R (D2R): 8.7% ^c
inhibition percentage of the radioligand binding, D3R (D3R; test compound concentration of 10 μM, [3H]N-methylspiperone, 10 µM): 65.4% ^c
inhibition percentage of the radioligand binding, D4R (D4R): 26.6% ^c
Compound: O=C(NCCC(F)CN1CCN(c2cccc(Cl)c2Cl)CC1)C1COc2ccccc2O1 (stereo not drawn) [11b, N-(4-(4-(2,3-Dichlorophenyl)piperazin-1-yl)-3-fluorobutyl)-2,3-dihydrobenzo[b][1,4]dioxine-2-carboxamide]

inhibition at 10 µM (D2R): 10.6%
inhibition at 10 µM (D3R; test compound concentration of 10 μM, [3H]N-methylspiperone, read-out: inhibition percentage of the radioligand binding, D3R): 54.8%
inhibition at 10 µM (D4R): 29.4%
Compound: O=C(NCCC(F)CN1CCN(c2cccc(Cl)c2Cl)CC1)C1COc2ccccc2O1 (stereo not drawn) [11a, N-(4-(4-(2,3-Dichlorophenyl)piperazin-1-yl)-3-fluorobutyl)-2,3-dihydrobenzo[b][1,4]dioxine-2-carboxamide]

inhibition at 10 µM (D2R): 39.5%
Ki (D3R; [3H]N-methylspiperone): 164 ± 52 nM
inhibition at 10 µM (D4R): 39.2%
Compound: O=C(NCCC(O)CN1CCN(c2cccc(Cl)c2Cl)CC1)C1COCC(c2ccccc2)(c2ccccc2)O1 (stereo not drawn) [4a, N-(4-(4-(2,3-Dichlorophenyl)piperazin-1-yl)-3-hydroxybutyl)-6,6-diphenyl-1,4-dioxane-2-carboxamide]

melting point: 146 to 147 °C
Compound: O=C(NCCC(O)CN1CCN(c2cccc(Cl)c2Cl)CC1)C1COCC(c2ccccc2)(c2ccccc2)O1 (single isomer, unassigned) (as salt: oxalate) [4a, N-(4-(4-(2,3-Dichlorophenyl)piperazin-1-yl)-3-hydroxybutyl)-6,6-diphenyl-1,4-dioxane-2-carboxamide]

Continued, compound first:

Compound: O=C(NCCC(F)CN1CCN(c2cccc(Cl)c2Cl)CC1)C1COC(c2ccccc2)(c2ccccc2)CO1 (stereo not drawn) (as salt: oxalate) [compound 8, N-(4-(4-(2,3-Dichlorophenyl)piperazin-1-yl)-3-fluorobutyl)-5,5-diphenyl-1,4-dioxane-2-carboxamide]
melting point: 126 to 127 °C

Compound: O=C(NCCC(O)CN1CCN(c2cccc(Cl)c2Cl)CC1)C1COC(c2ccccc2)(c2ccccc2)CO1 (stereo not drawn) [compound 7, N-(4-(4-(2,3-Dichlorophenyl)piperazin-1-yl)-3-hydroxybutyl)-5,5-diphenyl-1,4-dioxane-2 Carboxamide]
Ki (D2R): 526 ± 28.2 nM
Ki (D3R; [3H]N-methylspiperone): 23.4 ± 3.1 nM
D2/D3 (D3R): 23
D4/D3 (D3R): 17
Ki (D4R): 390 ± 46 nM

Compound: O=C(NCCC(O)CN1CCN(c2cccc(Cl)c2Cl)CC1)C1COc2ccccc2O1 (stereo not drawn) [10a, N-(4-(4-(2,3-Dichlorophenyl)piperazin-1-yl)-3-hydroxybutyl)-2,3-dihydrobenzo[b][1,4]dioxine-2-carboxamide]
Ki (D2R): 1100 ± 125 nM
Ki (D3R; [3H]N-methylspiperone): 44.1 ± 8.2 nM
D2/D3 (D3R): 25
D4/D3 (D3R): 6
Ki (D4R): 282 ± 76 nM

Compound: O=C(NCCC(F)CN1CCN(c2cccc(Cl)c2Cl)CC1)C1COC(c2ccccc2)(c2ccccc2)CO1 (stereo not drawn) [compound 8, N-(4-(4-(2,3-Dichlorophenyl)piperazin-1-yl)-3-fluorobutyl)-5,5-diphenyl-1,4-dioxane-2-carboxamide]
Ki (D2R): 1200 ± 210 nM
Ki (D3R; [3H]N-methylspiperone): 295 ± 100 nM
D2/D3 (D3R): 4
inhibition at 10 µM (D4R): 43.6%

Compound: O=C(NCCCCN1CCN(c2cccc(Cl)c2Cl)CC1)C1COc2ccccc2O1 (stereo not drawn) (as salt: oxalate) [compound 9, N-(4-(4-(2,3-Dichlorophenyl)piperazin-1-yl)butyl)-2,3-dihydrobenzo[b][1,4]dioxine-2-carboxamide]
melting point: 167 to 168 °C

Compound: O=C(NCCCCN1CCN(c2cccc(Cl)c2Cl)CC1)C1COCC(c2ccccc2)(c2ccccc2)O1 (stereo not drawn) (as salt: oxalate) [compound 3, N-(4-(4-(2,3-Dichlorophenyl)piperazin-1-yl)butyl)-6,6-diphenyl-1,4-dioxane-2-carboxamide]
melting point: 107 to 108 °C

Compound: O=C(NCCC(F)CN1CCN(c2cccc(Cl)c2Cl)CC1)C1COCC(c2ccccc2)(c2ccccc2)O1 (stereo not drawn) [compound 5, N-(4-(4-(2,3-Dichlorophenyl)piperazin-1-yl)-3-fluorobutyl)-6,6-diphenyl-1,4-dioxane-2-carboxamide]
inhibition at 10 µM (D2R): 21.2%
Ki (D3R; [3H]N-methylspiperone): 716 ± 178 nM
inhibition at 10 µM (D4R): 19.1%

Compound: O=C(NCCCCN1CCN(c2cccc(Cl)c2Cl)CC1)C1COC(c2ccccc2)(c2ccccc2)CO1 (stereo not drawn) (as salt: oxalate) [compound 6, N-(4-(4-(2,3-Dichlorophenyl)piperazin-1-yl)butyl)-5,5-diphenyl-1,4-dioxane-2-carboxamide]
melting point: 94 to 95 °C

Compound: O=C(NCCC(O)CN1CCN(c2cccc(Cl)c2Cl)CC1)C1COC(c2ccccc2)(c2ccccc2)CO1 (stereo not drawn) (as salt: oxalate) [compound 7, N-(4-(4-(2,3-Dichlorophenyl)piperazin-1-yl)-3-hydroxybutyl)-5,5-diphenyl-1,4-dioxane-2 Carboxamide]
melting point: 132 to 133 °C

Compound: O=C(NCCC(O)CN1CCN(c2cccc(Cl)c2Cl)CC1)C1COc2ccccc2O1 (single isomer, unassigned) (as salt: oxalate) [10a, N-(4-(4-(2,3-Dichlorophenyl)piperazin-1-yl)-3-hydroxybutyl)-2,3-dihydrobenzo[b][1,4]dioxine-2-carboxamide]
melting point: 88 to 89 °C

Compound: O=C(NCCC(O)CN1CCN(c2cccc(Cl)c2Cl)CC1)C1COc2ccccc2O1 (stereo not drawn) [10b, N-(4-(4-(2,3-Dichlorophenyl)piperazin-1-yl)-3-hydroxybutyl)-2,3-dihydrobenzo[b][1,4]dioxine-2-carboxamide]
Ki (D2R): 783 ± 19 nM
Ki (D3R; [3H]N-methylspiperone): 23.4 ± 2.4 nM
D4/D3 (D3R): 10
Ki (D4R): 244 ± 54 nM

Compound: O=C(NCCC(F)CN1CCN(c2cccc(Cl)c2Cl)CC1)C1COCC(c2ccccc2)(c2ccccc2)O1 (stereo not drawn) (as salt: oxalate) [compound 5, N-(4-(4-(2,3-Dichlorophenyl)piperazin-1-yl)-3-fluorobutyl)-6,6-diphenyl-1,4-dioxane-2-carboxamide]
melting point: 100 to 101 °C
